For assay [1], the system named is mouse bone marrow erythroid progenitors. The experiment in a line: Mouse adult bone marrow erythroid self-renewal culture, amplification of cell number. The format is cell-based. Conditions: for growth of mouse bone marrow erythroid progenitors (in words): drug at five times its respective IC50, two independent experiments. On the procedure: (§1) Adult bone marrow mononuclear cells (StemCell Technologies) (A), mouse fetal liver (B) and mouse adult bone marrow (C-D), were cultured in the presence of Dex, Epo, SCF and IGF-1. Dex slows down and delays the transition from self-renewal to differentiation of early CFU-e progenitors, leading to their numerical amplification.
The doses chosen for all these inhibitors were approximately 5 times the IC50 for each drug.

Assay [2] deals with mouse bone marrow CFU-e progenitors. The experiment in a line: CFU-e colony formation in semi-solid medium from mouse bone marrow cultures. The format is cell-based. Particulars: for increase in absolute CFU-e numbers relative to control cultures: day 5 of culture. On the procedure: (17B) Mouse bone marrow erythroid progenitors, treated as described in A, but plated on day 5 of the culture in semi-solid medium, CFU-e colonies scored 72 hours later.

In assay [3] the test system is p57KIP2-deficient fetal liver CFUe. As to the kind of experiment: Dex-dependent CFUe self-renewal (expansion) culture of p57KIP2-deficient fetal liver cells. The format is cell-based, mouse. Conditions: self-renewal medium Epo+Dex; roscovitine 0.5 μM. On the procedure:
(§2) To isolate Ter119-negative cells, fresh fetal liver cells were stained with biotin-conjugated anti-Ter119 (BD Biosciences 553672) at 1:100, followed by EasySep magnetic separation (StemCell Technologies). Cells were grown in Stem-Pro-34 serum free medium supplemented with nutrient supplement (Invitrogen), 1 μM dexamethasone (Sigma), 100 ng/ml SCF (PeproTech), 40 ng/ml IGF1 (PeproTech), 2 U/ml Epo, 100 U/ml penicillin/streptomycin (Invitrogen) and 2 mM L-glutamine (Invitrogen). Cells were maintained at 2×10^6 cells/ml, and supplemented daily with fresh medium and growth factors. To test the effect of roscovitine on p57^KIP2−/− fetal liver cells in expansion culture, cells were grown and maintained as described above with the additional supplemented daily of 0.5 μM roscovitine (EMD Millipore 557360). To switch to differentiation medium, after being maintained in expansion medium for 4 to 5 days, Ter119-negative cells were isolated again using EasySep magnetic beads (StemCell Technologies). Cells were then transferred to IMDM (L-glutamine, 25 mM HEPES) (Gibco), 20% fetal calf serum (Gibco, HyClone), 100 U/ml penicillin/streptomycin (Invitrogen), […] β-mercapthoethanol (Sigma) and 2 U/ml Epo.
We also investigated whether CDK inhibition could underlie the essential role that p57^KIP2 plays in maintaining the viability of self-renewing CFUe.

The subject of the next assay is wild-type CFU-e. As to the kind of experiment: Dex-dependent CFUe self-renewal (expansion) culture of wild-type fetal liver cells. It is filed as cell-based, mouse. On the procedure:
as §2
In three independent experiments, wild-type cells growing in roscovitine were amplified an average of 1.92±0.43 fold more than wild-type cells without treatment.

Assay [4] deals with human adult bone marrow mononuclear cells (erythroid progenitors). The experiment in a line: Human bone marrow erythroid self-renewal culture, amplification of cell number. It is filed as cell-based. Conditions: peak on day 16; pooled from two independent experiments; roscovitine concentration not stated (1, 5 or 10 μM). On the procedure:
as §1
(§3) We cultured hematopoietic tissue cells from either mouse adult bone marrow, mouse fetal liver (mid-gestation, embryonic day 13.5), or human adult bone marrow (StemCell Technologies, Vancouver, Canada), under conditions that facilitate self-renewal of colony-forming-unit-erythroid (CFU-e), in which the following are added to the culture medium: erythropoietin (Epo, 2 Units/ml), Stem Cell Factor (SCF, 100 ng/ml), Insulin-like Growth Factor 1 (IGF1, 40 ng/ml) and dexamethasone (Dex, 1 μM). Control cultures contained no other specialized additives; parallel cultures had, in addition, the CDK inhibitor roscovitine (1, 5 or 10 μM) (Pippin et al., J Clin Invest 100, 2512-2520 (1997); Meijer et al., European Journal of Biochemistry 243, 527-536 (1997)). […]

Assay [5] deals with mouse bone marrow self-renewing cultures. The experiment in a line: Flow cytometry and BrdU cell cycle analysis of mouse bone marrow self-renewing cultures. The format is cell-based. On the procedure:
(18A) Flow cytometric analysis of mouse bone marrow self-renewing cultures, on day 6 of culture. […] The overall viability of cells in roscovitine-treated cultures was increased (not shown). Bottom panels: corresponding cell cycle analysis of cells in each culture. Cells were pulsed with BrdU at 33 μM for 25 min before analysis.
We examined cells in the self-renewing cultures using flow-cytometry. Cell surface markers CD71 and Ter119 denote the differentiation stage of erythroid progenitors and precursors in mouse hematopoietic tissue^81,41. […] By contrast, control cultures contained a substantial fraction (35%) of Ter119+ cells.
A general note: In flow cytometry, cells or beads pass a laser one at a time.

Assay [6] relates to human bone marrow self-renewing cultures. As to the kind of experiment: Flow cytometry of human bone marrow self-renewing cultures. Conditions: day 10 of culture. The format is cell-based. The text has this: (18B) Flow cytometric analysis of human bone marrow self-renewing cultures, on day 10 of culture.
In assay [7] the test system is mouse fetal liver erythroid cells. The experiment in a line: Mouse fetal liver erythroid self-renewal culture (Example 2), amplification of cell number. Particulars: Dex, Epo, SCF, IGF-1. It is filed as cell-based. On the procedure:
as §1, §3

In a further assay the test system is p57KIP2-/- CFUe. The experiment in a line: CFUe colony potential of p57KIP2-/- cells from Dex self-renewal cultures. Conditions: day 11 of culture, 10^5 cells per dish, colonies scored 72 hours after plating.
The subject of assay [8] is human bone-marrow CFU-e progenitors. The experiment in a line: CFU-e colony formation in semi-solid medium from human bone marrow cultures. Conditions: cells taken on day 11 of culture.
Method: (17A) Human bone-marrow erythroid progenitors were amplified in cultures as in FIG. 1A. On day 11 of culture, cells were plated in semi-solid methylcellulose medium under differentiation conditions (in the presence of Epo and in the absence of Dex or SCF). CFU-e colonies were scored at 72 hours using diaminobenzidine staining to identify hemoglobinized cells. The absolute number of CFU-e progenitors obtained from the same initial starting number in each culture is shown. All statistically significant differences are noted (two-tailed t test, unequal variance).

Entries after “also recorded” stand apart in the source; their conditions may differ.

Method for p57KIP2-/- CFUe: (12B) Analysis of CFUe potential in Dex-dependent self-renewal cultures of p57^KIP2−/− cells treated with roscovitine (See FIG. 5I). On day 11 of culture, cells amplified in the presence or absence of roscovitine were plated at 10^5 cells per dish in Epo-containing semi-solid medium. The number of CFUe colonies formed per dish was scored 72 hours following plating.

`CC(=O)c1c(C)c2cnc(Nc3ccc(N4CCNCC4)cn3)nc2n(C2CCCC2)c1=O` [PD0332991]: in assay [1] (0.1 μM), the “amplification of erythroid cell number versus control cultures” value is “either no significant effect or an inhibitory effect”. In addition, the “growth of mouse bone marrow erythroid progenitors (in words)” value (from here on “growth”) in assay [1] is reported as “growth inhibition”. Also, the “absolute number of CFU-e progenitors by colony formation assay versus control” value in assay [2] (0.1 μM) is “either no significant effect or an inhibitory effect”.
Take `CC[C@H](CO)Nc1nc(NCc2ccccc2)c2ncn(C(C)C)c2n1` [roscovitine]: the “Dex-dependent self-renewal and expansion of p57KIP2-deficient CFUe” value in [3] is recorded as “rescued self-renewal; also recorded: rescue the self-renewal; also recorded: successfully rescued”. Besides, the “amplification of wild-type CFU-e (in words)” value in the assay with wild-type CFU-e (Dex cultures) is “enhanced the amplification; also recorded: also enhanced”. For the same compound, the “amplification of wild-type cells relative to wild-type cells without treatment” value in the assay on wild-type CFU-e (average of three independent experiments) turned out to be 1.92±0.43 fold. In addition, the “progenitors from wild-type cells relative to absence of drug” value with wild-type CFU-e (period of 7-9 days) is 2 fold. In the assay on wild-type CFU-e (roscovitine 0.5 μM), the “normal expansion of CFUe cultures derived from wild-type littermates” value is recorded as “little effect”. Also, the “peak amplification of cell number” value in assay [4] amounted to 9 fold. Also, the “growth” value in [1] is listed as “improved growth”. The “cell numbers in mouse adult bone marrow cultures (in words)” value in assay [1] (roscovitine 1, 5 or 10 μM) is “significantly higher cell numbers”. In addition, the “increase in absolute CFU-e numbers relative to control cultures” value in assay [2] (1 μM) was found to be 62%; in assay [2] (5 μM), 40%. The “number of S phase cells (in words)” value in assay [5] (BrdU 33 μM pulse for 25 min) is “fewer S phase cells”. Further, the “speed of S phase, rate of BrdU incorporation (BrdU MFI in S phase gate)” value in assay [5] (BrdU 33 μM pulse for 25 min) was “substantially slower”; in [5] (BrdU 33 μM pulse for 25 min, listed as Roscovitine), “slower S phase”. Also, in assay [5] (day 6 of culture), the “terminally-differentiating Ter119+ erythroblasts compared with control (in words)” value is listed as “relative absence”. Moreover, the “overall viability of cells in culture” value in assay [5] (day 6 of culture, data not shown) is listed as “increased”. The “cells in the culture expressing Ter119” value in assay [5] (mouse bone marrow cultures, roscovitine-treated) amounted to 6%. Moreover, the “cells expressing glycophorin A (in words)” value in assay [6] is reported as “fewer cells are glycophorin A positive”; in [6] (listed as Roscovitine) it was “lower number”. Besides, the “amplification of erythroid cell number in mouse fetal liver cultures (in words)” value in [7] was “increased amplification; also recorded: significantly higher cell numbers”. For the same compound, the “CFUe colony forming potential of treated p57KIP2-/- cells versus untreated cells” value in the assay with p57KIP2-/- CFUe was “retained the same potential; also recorded: preserved CFUe colony potential”. In assay [8] (1 μM), the “increase in absolute number of CFU-e progenitors over control cultures” value amounted to 3.9 fold. Further, the “increase in absolute number of CFU-e progenitors relative to control” value in [8] (5 μM) turned out to be 4.5 fold.
`NS(=O)(=O)c1ccc(N/N=C2\C(=O)Nc3ccc(Br)cc32)cc1` [SC-221409]: in [1] (0.5 μM), the “amplification of erythroid cell number versus control cultures” value is on record as “significant increase”. Moreover, the “growth” value in assay [1] is listed as “improved growth”. Moreover, the “absolute number of CFU-e progenitors by colony formation assay versus control” value in assay [2] (0.5 μM) is recorded as “significant increase”.
